Results from publication PMC11882969 (Nature Communications, 2025).
Values joined by “and” are separate entries in the source; they are usually repeats but may differ in a detail not shown here. Equal values may be shown once. Read-outs that look alike come from different tables or passages of the source.

What was measured:
CB1 (rCB1) = CB1 (rCB1) (Rattus norvegicus, UniProt P20272); assay: Radioligand competition binding, [3H]-CP-55,940, rat brain membranes
hCB1 = hCB1 (Homo sapiens, UniProt P21554); assay: bioSensAll ebBRET signaling profiling, hCB1; format: cell-based; parameters: host or cells: HEK293SL cells, transient PEI transfection; conditions: for Gi1 hCB1 response: Gi1 biosensor; for Gi1 hCB1 / GoB hCB1: single replicate values, FigS6a; for EC50: read-out: EC50 [95% CI]; for Emax: normalized to CP-55,940
hCB1, sequence (P21554 whole entry): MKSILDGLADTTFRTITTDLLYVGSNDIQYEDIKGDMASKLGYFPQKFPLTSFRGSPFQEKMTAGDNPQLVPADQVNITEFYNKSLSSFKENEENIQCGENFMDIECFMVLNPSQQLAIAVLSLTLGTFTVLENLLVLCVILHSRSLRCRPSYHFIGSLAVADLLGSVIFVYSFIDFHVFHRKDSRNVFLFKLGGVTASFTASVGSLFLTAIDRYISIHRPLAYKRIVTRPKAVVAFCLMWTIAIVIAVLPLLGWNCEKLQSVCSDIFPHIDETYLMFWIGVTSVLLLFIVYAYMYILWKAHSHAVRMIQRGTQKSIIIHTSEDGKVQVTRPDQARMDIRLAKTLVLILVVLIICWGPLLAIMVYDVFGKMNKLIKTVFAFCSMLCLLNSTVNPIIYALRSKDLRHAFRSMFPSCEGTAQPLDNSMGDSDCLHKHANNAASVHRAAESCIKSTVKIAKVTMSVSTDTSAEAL

CB1 (rCB1), sequence (P20272 whole entry): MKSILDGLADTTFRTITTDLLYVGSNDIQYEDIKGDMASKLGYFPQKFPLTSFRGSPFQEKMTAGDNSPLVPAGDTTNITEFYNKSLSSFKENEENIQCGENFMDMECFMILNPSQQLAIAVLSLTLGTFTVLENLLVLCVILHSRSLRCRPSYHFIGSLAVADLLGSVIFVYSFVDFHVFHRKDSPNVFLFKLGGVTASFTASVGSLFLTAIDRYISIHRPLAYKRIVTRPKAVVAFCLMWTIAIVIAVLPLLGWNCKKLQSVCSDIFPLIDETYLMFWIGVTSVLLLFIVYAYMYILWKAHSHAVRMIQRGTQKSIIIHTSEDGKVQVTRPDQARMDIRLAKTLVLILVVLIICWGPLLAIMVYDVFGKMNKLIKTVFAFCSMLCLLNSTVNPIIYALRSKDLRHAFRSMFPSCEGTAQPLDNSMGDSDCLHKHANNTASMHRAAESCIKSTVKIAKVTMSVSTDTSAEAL

Question: CC(=O)C(c1cccs1)N(C)C(=O)c1cc(C)n(-c2cccc(C(F)(F)F)c2)n1 (stereo not shown) [‘6829] was tested. Which “pKi [95% CI]” value (CB1 (rCB1); rCB1) did it give?
Answer: The value was 6.0 [5.8 – 6.2].

Question: And the Ki (CB1 (rCB1); read-out: Ki [95% CI], rCB1, [3H]-CP-55,940)?
Answer: The Ki was 1.05 µM.

Question: And the “Gi1 hCB1 response” value (hCB1; Log [Compound] (M) -4.22186)?
Answer: Its value is 50.5929.

Question: And the “Gi1 hCB1 response” value (hCB1; Log [Compound] (M) -4.63927)?
Answer: The value was 80.4274.

Question: What about the “Gi1 hCB1 response” value (hCB1; Log [Compound] (M) -5.05788) of the same compound?
Answer: Its value is 60.8884.

Question: And the “Gi1 hCB1 response” value (hCB1; Log [Compound] (M) -5.47381)?
Answer: The value was 50.1453.

Question: What about the “Gi1 hCB1 response” value (hCB1; Log [Compound] (M) -5.89285) of the same compound?
Answer: The value was 25.0333.

Question: What about the “Gi1 hCB1 response” value (hCB1; Log [Compound] (M) -6.31878) of the same compound?
Answer: The value was 14.2679.

Question: What about the “Gi1 hCB1 response” value (hCB1; Log [Compound] (M) -6.72585) of the same compound?
Answer: The value was 9.501.

Question: And the “Gi1 hCB1 response” value (hCB1; Log [Compound] (M) -7.14267)?
Answer: Its value is -0.2577.

Question: What about the “Gi1 hCB1 response” value (hCB1; Log [Compound] (M) -7.55284) of the same compound?
Answer: Its value is -0.3025.

Question: And the “Gi1 hCB1 response” value (hCB1; Log [Compound] (M) -8)?
Answer: Its value is -3.011.

Question: And the “Gi1 hCB1 response” value (hCB1; Log [Compound] (M) -8.22186)?
Answer: The value was 2.07.

Question: And the “Gi1 hCB1 response” value (hCB1; Log [Compound] (M) -8.39794)?
Answer: The value was -6.077.

Question: And the “Gi1 hCB1 response” value (hCB1; Log [Compound] (M) -8.68787)?
Answer: Its value is 2.45.

Question: And the “Gi1 hCB1 response” value (hCB1; Log [Compound] (M) -9.15521)?
Answer: The value was 5.629.

Question: What about the “Gi1 hCB1 response” value (hCB1; Log [Compound] (M) -9.61989) of the same compound?
Answer: The value was -3.749.

Question: What about the “Gi1 hCB1 response” value (hCB1; Log [Compound] (M) -10.0969) of the same compound?
Answer: The value was -4.958.

Question: What about the “Gi1 hCB1 response” value (hCB1; Log [Compound] (M) -10.5529) of the same compound?
Answer: Its value is -8.091.

Question: What about the “Gi1 hCB1 response” value (hCB1; Log [Compound] (M) -11.0177) of the same compound?
Answer: The value was -9.456.

Question: What about the “Gi1 hCB1 response” value (hCB1; Log [Compound] (M) -11.4949) of the same compound?
Answer: Its value is -2.585.

Question: And the “Gi1 hCB1 response” value (hCB1; Log [Compound] (M) -11.9208)?
Answer: Its value is -4.1073.

Question: And the “Gi1 hCB1 response” value (hCB1; Log [Compound] (M) -12.3979)?
Answer: Its value is -11.8513.

Question: What about the “Gi1 hCB1 response” value (hCB1; Log [Compound] (M) -12.8861) of the same compound?
Answer: The value was -4.7116.

Question: What about the “Gi1 hCB1 response” value (hCB1; Log [Compound] (M) -13, individual replicate values) of the same compound?
Answer: The value was -0.3696 and -4.085.

Question: What about the “Gi1 hCB1” value (hCB1; Log [Compound] (M) -4.22186) of the same compound?
Answer: Its value is 59.6278.

Question: And the “GoB hCB1” value (hCB1; Log [Compound] (M) -4.22186)?
Answer: The value was 46.0809.

Question: And the “Gi1 hCB1” value (hCB1; Log [Compound] (M) -4.63927)?
Answer: The value was 49.4067.

Question: And the “GoB hCB1” value (hCB1; Log [Compound] (M) -4.63927)?
Answer: Its value is 48.6345.

Question: What about the “Gi1 hCB1” value (hCB1; Log [Compound] (M) -5.05788) of the same compound?
Answer: Its value is 40.28.

Question: And the “GoB hCB1” value (hCB1; Log [Compound] (M) -5.05788)?
Answer: The value was 42.8439.

Question: What about the “Gi1 hCB1” value (hCB1; Log [Compound] (M) -5.47381) of the same compound?
Answer: Its value is 35.5317.

Question: And the “GoB hCB1” value (hCB1; Log [Compound] (M) -5.47381)?
Answer: The value was 37.2331.

Question: What about the “Gi1 hCB1” value (hCB1; Log [Compound] (M) -5.89285) of the same compound?
Answer: The value was 23.7381.

Question: And the “GoB hCB1” value (hCB1; Log [Compound] (M) -5.89285)?
Answer: The value was 25.7777.

Question: And the “Gi1 hCB1” value (hCB1; Log [Compound] (M) -6.31878)?
Answer: Its value is 13.3781.

Question: And the “GoB hCB1” value (hCB1; Log [Compound] (M) -6.31878)?
Answer: The value was 16.7141.

Question: And the “Gi1 hCB1” value (hCB1; Log [Compound] (M) -6.72585)?
Answer: The value was 9.694.

Question: What about the “GoB hCB1” value (hCB1; Log [Compound] (M) -6.72585) of the same compound?
Answer: The value was 6.7333.

Question: What about the “Gi1 hCB1” value (hCB1; Log [Compound] (M) -7.14267) of the same compound?
Answer: Its value is 3.188.

Question: And the “GoB hCB1” value (hCB1; Log [Compound] (M) -7.14267)?
Answer: The value was 2.399.

Question: And the “Gi1 hCB1” value (hCB1; Log [Compound] (M) -7.55284)?
Answer: Its value is 5.377.

Question: What about the “GoB hCB1” value (hCB1; Log [Compound] (M) -7.55284) of the same compound?
Answer: Its value is 1.374.

Question: And the “Gi1 hCB1” value (hCB1; Log [Compound] (M) -8)?
Answer: The value was 4.359.

Question: And the “GoB hCB1” value (hCB1; Log [Compound] (M) -8)?
Answer: Its value is 2.831.

Question: What about the “Gi1 hCB1” value (hCB1; Log [Compound] (M) -8.22186) of the same compound?
Answer: Its value is 1.1836.

Question: And the “GoB hCB1” value (hCB1; Log [Compound] (M) -8.22186)?
Answer: The value was -4.488.

Question: What about the “Gi1 hCB1” value (hCB1; Log [Compound] (M) -8.39794) of the same compound?
Answer: The value was 5.593.

Question: What about the “GoB hCB1” value (hCB1; Log [Compound] (M) -8.39794) of the same compound?
Answer: Its value is 1.554.

Question: What about the “Gi1 hCB1” value (hCB1; Log [Compound] (M) -8.68787) of the same compound?
Answer: The value was 1.615.

Question: And the “GoB hCB1” value (hCB1; Log [Compound] (M) -8.68787)?
Answer: The value was -3.931.

Question: And the “Gi1 hCB1” value (hCB1; Log [Compound] (M) -9.15521)?
Answer: The value was 2.463.

Question: And the “GoB hCB1” value (hCB1; Log [Compound] (M) -9.15521)?
Answer: The value was -1.036.

Question: What about the “Gi1 hCB1” value (hCB1; Log [Compound] (M) -9.61989) of the same compound?
Answer: The value was 0.7057.

Question: And the “GoB hCB1” value (hCB1; Log [Compound] (M) -9.61989)?
Answer: Its value is -1.161.

Question: What about the “Gi1 hCB1” value (hCB1; Log [Compound] (M) -10.0969) of the same compound?
Answer: The value was 1.353.

Question: What about the “GoB hCB1” value (hCB1; Log [Compound] (M) -10.0969) of the same compound?
Answer: The value was -3.463.

Question: And the “Gi1 hCB1” value (hCB1; Log [Compound] (M) -10.5529)?
Answer: The value was 1.137.

Question: What about the “GoB hCB1” value (hCB1; Log [Compound] (M) -10.5529) of the same compound?
Answer: The value was 1.105.

Question: What about the “Gi1 hCB1” value (hCB1; Log [Compound] (M) -11.0177) of the same compound?
Answer: Its value is 3.142.

Question: And the “GoB hCB1” value (hCB1; Log [Compound] (M) -11.0177)?
Answer: Its value is -0.532.

Question: What about the “Gi1 hCB1” value (hCB1; Log [Compound] (M) -11.4949) of the same compound?
Answer: Its value is 2.879.

Question: And the “GoB hCB1” value (hCB1; Log [Compound] (M) -11.4949)?
Answer: The value was 1.392.

Question: What about the “Gi1 hCB1” value (hCB1; Log [Compound] (M) -11.9208) of the same compound?
Answer: Its value is 3.126.

Question: What about the “GoB hCB1” value (hCB1; Log [Compound] (M) -11.9208) of the same compound?
Answer: Its value is 1.392.

Question: And the “Gi1 hCB1” value (hCB1; Log [Compound] (M) -12.3979)?
Answer: The value was 4.159.

Question: And the “GoB hCB1” value (hCB1; Log [Compound] (M) -12.3979)?
Answer: Its value is 2.561.

Question: What about the “Gi1 hCB1” value (hCB1; Log [Compound] (M) -12.8861) of the same compound?
Answer: The value was 3.496.

Question: What about the “GoB hCB1” value (hCB1; Log [Compound] (M) -12.8861) of the same compound?
Answer: Its value is 2.705.

Question: What about the “Gi1 hCB1” value (hCB1; Log [Compound] (M) -13) of the same compound?
Answer: The value was 3.327 and 1.677.

Question: And the “GoB hCB1” value (hCB1; Log [Compound] (M) -13)?
Answer: Its value is -2.744 and -3.607.

Question: What about the “pEC50 [95% CI]” value (hCB1; hCB1 Gi1) of the same compound?
Answer: Its value is 5.4 [5.0 – 5.6].

Question: What about the “pEC50 [95% CI]” value (hCB1; hCB1 GoB) of the same compound?
Answer: Its value is 6.0 [5.8 – 6.2].

Question: What about the “pEC50 [95% CI]” value (hCB1; hCB1 Gz) of the same compound?
Answer: The value was 5.9 [6.0 – 6.2].

Question: And the EC50 (hCB1; hCB1 Gi1)?
Answer: Its EC50 is 4.06 µM.

Question: What about the EC50 (hCB1; hCB1 Gz) of the same compound?
Answer: The EC50 was 1.35 µM.

Question: What about the Emax (hCB1; read-out: Emax [95% CI], hCB1 Gi1) of the same compound?
Answer: The Emax was 68%.

Question: And the Emax (hCB1; read-out: Emax [95% CI], hCB1 GoB)?
Answer: The Emax was 49%.

Question: And the Emax (hCB1; read-out: Emax [95% CI], hCB1 Gz)?
Answer: The Emax was 70%.
